Laboratory results published in PMC11578313, “Miniaturized Modular Click Chemistry‐enabled Rapid Discovery of Unique SARS‐CoV‐2 M^pro Inhibitors With Robust Potency and Drug‐like Profile” (Advanced Science, 2024).

Experiment: in vitro
Conditions: human

Cc1cncc(C(=O)N2C[C@H]3CC[C@@H](C2)N3[C@H](c2cccc(F)c2)c2cn(CCc3ccsc3)nn2)c1 [Compound C5N17B]
> 100 µM: CC50 | CC50 at 2 day (CC50 (Table 3), Calu‐3 cells) | CC50 at 2 day (CC50, Calu‐3 cells, MTT assay) | CC50 at 2 day (CC50, column 9, after the Calu-3 EC50 columns)
